# US20200030288A1, “STATIN FOR PREVENTION/REDUCTION OF ISCHEMIA-RELATED DAMAGE” (Fundacio Institut De Recerca De L'Hospial De La Santa Creu …, priority 2017, published 2020)
# How the values were obtained:
# [1] = test system: TLR4, TF and MCP-1 in PBMC; assay: TLR4, TF and MCP-1 expression in circulating PBMC of ischemic pigs; type: in vivo
# Description: Blood samples were also collected in EDTA at baseline (prior to ischemia) and after 90 min of ischemia from the femoral artery for PBMC isolation by the Ficoll method. To this end, 20 ml of blood were collected into EDTA tubes at three tested time-points (0, 30, and 90 min) in all animals. All blood samples were immediately subjected to Ficoll-paque Plus (Amersham Biosciences) density gradient centrifugation to isolate PBMCs. Samples were counted and then directly frozen in liquid nitrogen and stored at −80° C. until mRNA and protein isolation as described in Example 5 and Example 6. The mRNA expression level of the inflammatory markers related to innate immunity TLR4 (Toll-like receptor 4) and MCP-1, as well as […] (tissue factor) were determined by Real Time PCR analyses whereas protein expression of MCP-1 was also assessed. The threshold cycle (Ct) values were determined and normalized to the housekeeping gene 18SrRNA in order to adjust for equal amounts of RNA whereas Ponceau red was used for protein loading control.
# rat model for ischemia = assay: Rat model of myocardial infarction by coronary ligation: scar size 30 days after ischemia; type: in vivo, male SD rats; settings: single dose 0.3 mg/kg 15 min after onset of ischemia; 30 days post-ischemia induction; vs vehicle-controls
# Description: The study was performed in male SD rats (8-10 weeks old, weighing 250-300 g; Jackson Laboratory). MI was induced by LAD coronary artery ligation for 45 min. […] Afterwards hearts were carefully excised for morphometric assessment of infarct size.
# eNOS = eNOS activation (P-eNOS Ser1177 / total eNOS) in pig myocardium by Western blot; type: in vivo, pigs; settings: ischemic myocardium
# Description: (P-eNOS) or activated eNOS.
# AMPK = AMPK activation (P-AMPK Thr172 / total AMPK) in pig myocardium by Western blot; settings: for levels of P-AMPK: vs controls
# caspase-3 = assay: Caspase-3 activation (cleaved / total caspase-3) in pig myocardium by Western blot; type: in vivo, pigs
# Description: Myocardial tissue of all pigs included in Example 1 and Example 2 was obtained, pulverized and processed with lysis buffer for protein isolation as detailed in Example 6. Protein was quantified by the Pierce method and Western Blot analysis was performed to assess the levels of phosphorylated p53 (Ser15), total p53, cleaved caspase-3 and total caspase-3. The ratios phosphorylated p53/total p53 and cleaved Casp3/total caspase3 were calculated to ascertain how much of protein was activated.
# [2] = prior (0 min) or post (90 min) ischemic induction
structure (smiles),measurement,setting,value
CC(C)c1c(C(=O)Nc2ccccc2)c(-c2ccccc2)c(-c2ccc(F)cc2)n1CC[C@@H](O)C[C@@H](O)CC(=O)O [atorvastatin],"ischemia-triggered increase in MCP-1 expression, gene level",[1]; PBMC,markedly attenuated
same,"ischemia-triggered increase in MCP-1 expression, protein level",[1]; PBMC,markedly attenuated
same,TF PBMC expression (mRNA),[1]; [2],did not modify
same,TLR4 PBMC expression (mRNA),[1]; [2],did not modify
same,reduction in scar size,rat model for ischemia,60%
same,ischemia-induced eNOS activation (P-eNOS/eNOS),eNOS,did not further enhance
same,total protein content of AMPK,AMPK; entire heart,No changes
same,levels of P-AMPK,AMPK; ischemic myocardium,significantly increased
same,levels of P-AMPK,AMPK; non-ischemic cardiac tissue,No changes
same,levels of cleaved (active) caspase 3,caspase-3; ischemic myocardium,reduced
same,total caspase-3,caspase-3; myocardium,no changes
